“And” between values parts separate entries of the source, which are not always exact repeats. Identical values can stand only once. Values belong to the compound of their own block, whether it stands above or below them.
Experiments:
[1] = biological target: T1, BK B2-Receptor in h-CM cells (Homo sapiens, UniProt P30411); assay: Antagonism of BK-induced [Ca^2+]i mobilization in h-CM cells; assay type: cell-based; settings: read-out: Antagonist Potency (Ki; nM) vs BK (10 nM) in [Ca^2+]i Mobilization Assay, mean ± SEM or individual experiments
T1 construct: we discovered and pharmacologically characterized B2-receptor proteins in h-TM, h-CM and h-NPE cells; endogenous in cells; host or cells: primary human ciliary muscle (h-CM) cells
T1 sequence (P30411 1-391): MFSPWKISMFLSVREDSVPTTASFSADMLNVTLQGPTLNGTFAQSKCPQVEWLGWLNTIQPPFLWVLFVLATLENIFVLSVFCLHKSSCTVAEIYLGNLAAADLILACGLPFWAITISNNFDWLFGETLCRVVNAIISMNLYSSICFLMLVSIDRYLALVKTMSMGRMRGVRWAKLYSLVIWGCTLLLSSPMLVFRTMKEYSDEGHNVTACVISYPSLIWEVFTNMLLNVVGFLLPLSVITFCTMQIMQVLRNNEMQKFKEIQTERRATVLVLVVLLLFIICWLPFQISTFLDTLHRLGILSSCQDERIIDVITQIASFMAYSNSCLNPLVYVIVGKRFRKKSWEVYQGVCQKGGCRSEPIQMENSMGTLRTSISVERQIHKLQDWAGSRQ
Experimental: (§1) Opthalmol. Vis. Res. 47: 4001-4019, 2006; Sharif et al., J. Ocular Pharmacol. Ther. 22: 291-309, 2006).
(§2) On the day of the experiment, one vial of FLIPR Calcium Assay Kit dye is re-suspended in 50 mL of a FLIPR buffer consisting of Hank's Balanced Salt Solution (HBSS), 20 mM HEPES, and 2.5 mM probenecid, pH 7.4. Cells are loaded with the calcium-sensitive dye by addition of an equal volume (50 μL) to each well of the 96-well plate and incubated with dye for 1 h at 23° C. After this time, the test compound plate and cell plate are placed in the FLIPR instrument. At the beginning of an experimental run, a signal test is performed to check the basal fluorescence signal from the dye-loaded cells and the uniformity of the signal across the plate. The basal fluorescence is adjusted between 8000-12000 counts by modifying the exposure time, the camera F-stop, or the laser power. Instrument settings for a typical assay are the following: laser power 0.3-0.6 W, camera F-stop F/2, and exposure time 0.4 sec.
(§3) Fluorescence data are collected in real-time at 1.0 sec intervals for the first 60 secs and at 6.0 sec intervals for an additional 120 secs. […] The data are then analyzed using an automated, iterative, sigmoidal curve-fitting computer program to obtain the potency and intrinsic activities of the test agents as previously described (Sharif et al. J. Pharmacol. Exp. Ther. 286: 1094-1102, 1998; Sharif et al. Invest. Opthalmol. Vis. Sci. 39:2562-2571, 1998; Kelly et al. J. Pharmacol. Exp. Ther. 304: 238-245, 2003). The sources of materials and reagents for such assays can be found in the references cited above.

[2] = test system: Conscious Ocular Hypertensive Cynomolgus Monkey Eyes; assay: IOP response in conscious ocular hypertensive cynomolgus monkey eyes; assay type: in vivo; settings: for % Change in IOP (mmHg): topical ocular 300 μg, mean ± SEM
Experimental: Intraocular pressure (IOP) is determined with an Alcon Pneumatonometer (Alcon Laboratories, Inc., Fort Worth, Tex.) after light corneal anesthesia with 0.1% proparacaine. Right eyes are hypertensive as a result of laser trabeculoplasty. After a baseline IOP measurement, test compound is instilled in the right eyes only of 8-10 cynomolgus monkeys. Vehicle is instilled in the right eyes of 5-6 additional animals. […] IOP measurements are also taken on left eyes (normotensive and untreated) at each of these time points. The percent change in IOP from baseline is determined for each animal for every IOP measurement (Sharif et al. J. Ocular Pharmacol. Ther. 17: 305-317, 2001; May et al., J Pharmacol Exp Ther. 306: 301-309, 2003; Sharif et al. Invest. Opthalmol. Vis. Res. 47: 4001-4010, 2006). Group mean and standard error of the mean (SEM) are calculated for each time point. […] In cases where the compound of invention has poor ocular bioavailability, the compound may need to be administered intracamerally or intravitreally in order to observe the IOP-lowering efficacy.

[3] = biological target: T2, BK B2-Receptor in h-NPE cells (Homo sapiens, UniProt P30411); assay: Antagonism of BK-induced [Ca^2+]i mobilization in immortalized h-NPE cells; assay type: cell-based; settings: read-out: Antagonist Potency (Ki; nM) vs BK (10 nM) in [Ca^2+]i Mobilization Assay, mean ± SEM or individual experiments
T2 construct: we discovered and pharmacologically characterized B2-receptor proteins in h-TM, h-CM and h-NPE cells; endogenous in cells; host or cells: immortalized human non-pigmented ciliary epithelial (h-NPE) cells
T2 sequence (P30411 1-391): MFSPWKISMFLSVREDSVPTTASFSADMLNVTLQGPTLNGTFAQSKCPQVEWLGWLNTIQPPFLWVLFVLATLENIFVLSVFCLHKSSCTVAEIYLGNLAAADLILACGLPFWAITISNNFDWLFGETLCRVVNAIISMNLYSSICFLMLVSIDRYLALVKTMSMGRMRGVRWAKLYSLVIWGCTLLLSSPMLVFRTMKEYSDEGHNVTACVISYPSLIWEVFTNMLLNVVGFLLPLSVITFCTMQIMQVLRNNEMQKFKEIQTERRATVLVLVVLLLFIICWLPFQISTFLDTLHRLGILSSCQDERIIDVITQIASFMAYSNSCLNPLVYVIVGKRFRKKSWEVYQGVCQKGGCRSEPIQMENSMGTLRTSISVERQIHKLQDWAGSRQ
Experimental: as §1, §2, §3

h-CM cells = assay: Production and release of endogenous prostaglandins from h-CM cells; assay type: cell-based, human; settings: BK 1 μM, relative to baseline and to fluprostenol
Experimental: A functional assay to discover BK agonists may involve the measurement of prostaglandin E2 (PGE2) production (Wiernas et al. Brit. J. Pharmacol. 123: 1127-1137, 1998), for instance, in cells isolated from human or animal ocular or non-ocular tissues, or cells expressing recombinant (preferably human) BK receptors. Cells expressing BK receptors are seeded in 48-wells culture plates and allowed to reach confluence. After this time the cells are rinsed twice with 0.5 mL of phosphate buffered saline and incubated with the test agent made up in 0.5 mL Dulbeco's modified Eagle's medium (DMEM)/F-12 for 1 h at 37° C. […]
After this incubation, all tubes are placed in an ice-bath and 1 ml cold precipitating reagent supplied in the kit is added to the tubes, the content mixed and incubated for 25 min at 4° C. […] The supernatants of all tubes are decanted as specified in the kit instructions and the RIA samples analyzed on a gamma-counter. The levels of PGE2 generated by the test agent are then quantified in comparison with the PGE2-standard curve. Dose-response data for the test agent are constructed and the potency and intrinsic activity determined as described above for other assays. […]

[4] = biological target: T3, BK B2-Receptor in h-TM cells (Homo sapiens, UniProt P30411); assay: Antagonism of BK-induced [Ca^2+]i mobilization in h-TM cells; assay type: cell-based; settings: read-out: Antagonist Potency (Ki; nM) vs BK (10 nM) in [Ca^2+]i Mobilization Assay, mean ± SEM or individual experiments
T3 construct: we discovered and pharmacologically characterized B2-receptor proteins in h-TM, h-CM and h-NPE cells; endogenous in cells; host or cells: primary human trabecular meshwork (h-TM) cells
T3 sequence (P30411 1-391): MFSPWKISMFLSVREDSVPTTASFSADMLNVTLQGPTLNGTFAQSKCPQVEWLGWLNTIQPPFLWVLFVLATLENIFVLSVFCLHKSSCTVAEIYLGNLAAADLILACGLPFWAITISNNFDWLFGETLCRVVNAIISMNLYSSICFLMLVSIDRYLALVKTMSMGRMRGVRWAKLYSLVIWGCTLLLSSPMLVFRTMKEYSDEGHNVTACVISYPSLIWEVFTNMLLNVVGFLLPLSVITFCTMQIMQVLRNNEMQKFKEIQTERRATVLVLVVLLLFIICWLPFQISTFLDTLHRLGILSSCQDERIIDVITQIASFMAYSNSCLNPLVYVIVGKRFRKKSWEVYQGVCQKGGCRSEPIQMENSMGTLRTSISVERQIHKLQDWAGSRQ
Experimental: as §1
as §2, with “Instrument settings for a typical assay are the following: laser power 0.3-0.6 W, camera F-stop F/2, and exposure time 0.4 sec.” left out
as §3, with “The sources of materials and reagents for such assays can be found in the references cited above.” left out

[5] = biological target: T4, B2-receptors in h-NPE cells (Homo sapiens, UniProt P30411); assay: BK- and BK-related peptide-induced [Ca^2+]i mobilization in h-NPE cells (agonist potency); assay type: cell-based; settings: BK = 100%, read-out: Intrinsic Activity (Emax, % max relative to BK)
T4 construct: we discovered and pharmacologically characterized B2-receptor proteins in h-TM, h-CM and h-NPE cells; endogenous in cells; host or cells: immortalized human non-pigmented ciliary epithelial (h-NPE) cells
T4 sequence (P30411 1-391): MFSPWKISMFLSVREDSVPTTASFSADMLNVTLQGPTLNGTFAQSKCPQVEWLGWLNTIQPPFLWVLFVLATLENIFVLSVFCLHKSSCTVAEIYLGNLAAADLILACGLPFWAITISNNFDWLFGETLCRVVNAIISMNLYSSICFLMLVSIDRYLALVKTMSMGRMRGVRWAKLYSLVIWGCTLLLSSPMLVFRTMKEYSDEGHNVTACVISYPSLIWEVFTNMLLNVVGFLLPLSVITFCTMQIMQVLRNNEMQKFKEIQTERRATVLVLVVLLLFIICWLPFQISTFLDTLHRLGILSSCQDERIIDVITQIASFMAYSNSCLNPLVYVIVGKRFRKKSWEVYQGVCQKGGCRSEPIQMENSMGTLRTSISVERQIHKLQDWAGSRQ

- Ki [1]: 11 nM and 4 nM
Compound: CNC(=O)c1ccc(/C=C/C(=O)NCC(=O)N(C)c2ccc(Cl)c(COc3cccc4ccc(C)nc34)c2Cl)cc1 [FR-165649]
- % Change in IOP (mmHg) ([2]; Dose 1/1 hr post-dose): 1.0 ± 3.1%
- % Change in IOP (mmHg) ([2]; Dose 1/3 hr post-dose): 0.7 ± 3.5%
- % Change in IOP (mmHg) ([2]; Dose 1/6 hr post-dose): −6.2 ± 4.7%
- % Change in IOP (mmHg) ([2]; Dose 1/24 hr post-dose): −4.0 ± 3.2%
- modulation of IOP (in words) ([2]; topically administered 300 μg, conscious cynomolgus monkeys): failed to modulate IOP
- Ki [3]: 393 nM and 337 nM

Compound: O=C(O)CCC/C=C\C[C@@H]1[C@@H](/C=C/[C@@H](O)COc2cccc(C(F)(F)F)c2)[C@H](O)C[C@@H]1O (racemic) [fluprostenol]
- production of prostaglandins (h-CM cells): stimulation of production and release of endogenous prostaglandins

- Ki [1]: 35 nM and 11 nM
- Ki [4]: 121 nM and 193 nM
Compound: CC(=O)Nc1ccc(/C=C/C(=O)NCC(=O)N(C)c2ccc(Cl)c(COc3cccc4ccc(C)nc34)c2Cl)cn1 [FR-173657]
- Ki [3]: 787 nM and 788 nM

- Emax [5]: 70 to 77%
Compound: CSCC[C@H](N)C(=O)N[C@@H](CCCCN)C(=O)N[C@@H](CCCNC(=N)N)C(=O)N1CCC[C@H]1C(=O)N1CCC[C@H]1C(=O)NCC(=O)N[C@@H](Cc1ccccc1)C(=O)N[C@@H](CO)C(=O)N1CCC[C@H]1C(=O)N[C@@H](Cc1ccccc1)C(=O)N[C@@H](CCCNC(=N)N)C(=O)O [Met-Lys-BK]

Reference: US8263555B2 (Alcon Research, Ltd., priority 2007, dated 2012)
